The target in test [1] is T1, Aβ amyloid plaques (amyloid β) (Homo sapiens, UniProt P05067).
T1 construct: gene APP; aggregated Aβ plaques in postmortem human AD brain slices
The test can be described thus: displacement of […]IAZA at […], autoradiography in human AD brain slices.

For test [2], the target named is T1, Aβ amyloid plaques (amyloid β). The test can be described thus: autoradiographic radioligand competition with […]IBETA in human AD brain slices; direct [[…]I]IAZA binding.

T1 sequence (P05067 18-770): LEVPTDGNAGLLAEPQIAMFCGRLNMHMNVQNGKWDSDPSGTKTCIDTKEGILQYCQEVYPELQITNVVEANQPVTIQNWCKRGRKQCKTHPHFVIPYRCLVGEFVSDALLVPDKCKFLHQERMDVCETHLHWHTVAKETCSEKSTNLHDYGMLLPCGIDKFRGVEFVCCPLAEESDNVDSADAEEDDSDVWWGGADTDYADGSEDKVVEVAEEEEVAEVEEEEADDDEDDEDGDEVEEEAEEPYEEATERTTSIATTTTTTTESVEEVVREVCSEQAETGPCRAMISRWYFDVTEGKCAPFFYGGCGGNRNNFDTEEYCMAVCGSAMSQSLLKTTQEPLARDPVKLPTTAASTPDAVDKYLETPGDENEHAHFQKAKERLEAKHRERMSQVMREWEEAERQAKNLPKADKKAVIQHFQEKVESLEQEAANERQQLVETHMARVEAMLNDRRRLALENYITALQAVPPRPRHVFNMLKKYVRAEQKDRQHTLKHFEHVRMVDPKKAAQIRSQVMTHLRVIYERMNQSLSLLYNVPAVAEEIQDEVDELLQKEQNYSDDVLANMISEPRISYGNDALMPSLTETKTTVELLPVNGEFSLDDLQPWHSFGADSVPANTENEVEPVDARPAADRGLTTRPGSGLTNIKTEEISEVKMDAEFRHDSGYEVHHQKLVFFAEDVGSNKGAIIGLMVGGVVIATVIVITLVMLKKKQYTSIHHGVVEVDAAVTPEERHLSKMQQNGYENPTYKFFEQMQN

For orientation: inhibition means the drop in the measured response relative to a control, in per cent. `CN(C)c1ccc(-c2cc3cc(Br)ccc3o2)cn1` [BrBETA]: the inhibition at 10 µM in test [1] is above 95%.

What is called Ki is the dissociation constant of the complex between target and ligand, obtained from inhibition or displacement. The low end stands for tighter binding, the high end for weaker binding. In test [2], `CN(C)c1ccc(N=Nc2ccc(I)cc2)cc1` [compound 5, 4′-iodo-4-dimethylaminoazobenzene] displayed a Ki of 0.0109 µM.
